Values belong to the compound of their own block, whether it stands above or below them. Bridge positions count the residues as written; N and C are the ends. Square brackets hold non-standard residues; d marks the D form. Peptide text beside a SMILES is read from it.
Experiments:
hPADI4-stable mES cells = assay: High content microscopy of citrullinated histone H3 (H3Cit) in hPADI4-stable mES cells; assay type: cell-based, mouse; conditions: KSR/2i 3 h, Fig. S7B
Description: HaLo-GFP-mito HeLa cells were grown in DMEM (Gibco) supplemented with 10% foetal bovine serum (FBS), penicillin/streptomycin (100 µg/ml) and puromycin (1 µg/ml) at 37 °C, 5% CO2. HaLo-GFP-mito HeLa cell line[82] was profiled by short tandem repeat analysis (STR) and tested negative for mycoplasma by the Cell Services Technology Platform at the Francis Crick Institute. E14 –mouse embryonic stem cells (Cambridge Stem Cell Institute, UK) were cultured in plates coated with 1% gelatine in GMEM supplemented with 10% foetal calf serum (FCS) batch-tested for ES cell culture (Gibco), 0.1 mM non-essential amino acids, 2 mM L-glutamine, 1 mM sodium pyruvate, 0.1 mM β-mercaptoethanol and 50 ng/mL leukaemia inhibitory factor (LIF) (ESGRO, Millipore). For PADI4 activation, cells were cultured in GMEM containing 10% knockout serum replacement (KSR, Life Technologies), 1% FCS batch-tested for ES cell culture (Gibco), 0.1 mM non-essential amino acids, L-glutamine, 1 mM sodium pyruvate, 0.1 mM β-mercaptoethanol, 50 ng/mL LIF (ESGRO, Millipore), 1 μM PD0325901 (AxonMedChem) and 3 μM CHIR99021 (AxonMedChem). For the generation of E14 mES stably expressing human PADI4 (hPADI4-stable), human PADI4 cDNA was inserted into ES E14 cells using the piggyBac transposon system. The Gateway system was used to clone human PADI4 into the piggyBac vector using primers PADI4_AttB1_F and PADI4_AttB2_R (Table S4). pPB-CAG-CTRL (empty vector) or pPB-CAG-hPADI4 vectors […] were transfected with the piggyBac transposase (pPBase) expression vector, pCAGPBase […], by lipofection according to the manufacturer’s instructions (Lipofectamine 2000, Invitrogen). E14 cells constitutively expressing the hygromycin resistance gene and human PADI4 were selected and expanded in media containing […] hygromycin.
E14 cells were seeded onto 96-well PerkinElmer cell carrier ultra plates (Phenoplates) coated with 0.1% gelatine, at 25,000 cells per well and grown overnight at 37 °C, 5% CO2. Outer wells were excluded but medium was added to minimise any edge effects. […]

hPADI4 [1] = target: T1, hPADI4 (Homo sapiens, UniProt Q9UM07); assay: COLDER assay, activation of PADI4 (calcium titration at fixed peptide, or peptide titration at 0.1 mM CaCl2); assay type: biochemical; conditions: 30 µM peptide
T1 construct: PADI4 (residues 1–663); Avi-Tag (unbiotinylated); made in house; host or cells: E. coli BL21(DE3) without BirA
Description: (§1) PADI4 activity was assessed using the COLDER assay[43] that measures the formation of urea-containing compounds (e.g. citrulline). The reaction was carried out in a 96-well plate with a final volume of 50 µl. His-PADI4 (50 nM) was incubated with different concentrations of peptides (100 µM to 0.3 nM) in the presence of CaCl2 (from 10 mM to 0.001 mM as specified) for 10 min. The reaction was started by the addition of 10 mM N^α-Benzoyl-L-arginine ethyl ester hydrochloride (BAEE, Merck). After 30 min, the reaction was quenched with EDTA (50 mM final concentration). For colour development, 200 µl of COLDER solution, consisting of 1 volume of solution A (80 mM diacetyl monoxime/2,3-butanedione monoxime (Merck) and 2 mM thiosemicarbazide (Acros Organics)) and 3 volumes of solution B (3 M H3PO4, 6 M H2SO4 and 2 mM NH4Fe(SO4)2) were added to each well and the mixture was heated at 95 °C for 15 min. After cooling to RT, absorbance at 540 nm was measured, and citrulline concentration was determined using a standard curve of citrulline standards. All studies were performed within the linear range of PADI4 activity, and data analysis was performed using Prism GraphPad (Dotmatics). Data are presented as the average ± standard error of the mean from at least two independent replicates.

hPADI4 [2] = target: T1, hPADI4; assay: COLDER assay, inhibition of PADI4 at 10 mM CaCl2 (substrate BAEE); assay type: biochemical; conditions: COLDER, 10 mM CaCl2, peptide 10–0.0003 µM
Description: as §1

[3] = tested on: hPADI4 expressing mES cells; assay: Cytotoxicity by live cell imaging with Incucyte Cytotox Green Dye
Description: Live cell imaging was performed using an Incucyte® imaging system (Sartorius), using Incucyte® Cytotox Green Dye as per the manufacturer’s instructions.
E. Assessment of cytotoxicity by live cell imaging with Incucyte® Cytotox
Green Dye, as a measure for cell death. hPADI4 expressing mES cells treated with 1 µM
Assessment of cytotoxicity by live cell imaging with Incucyte® Cytotox Green Dye, as a read-
vehicle (0.1%), and imaged for 48 h.

HaLo-GFP-mito HeLa cells = assay: Chloroalkane penetration assay (CAPA); assay type: in vitro ADME; conditions: for CP50: 4 h in Opti-MEM, 37 °C, chase HaLo-Tag TMR ligand 5 µM 15 min, mean ± SEM of three independent experiments; for CP50 at 4 °C relative to 37 °C: peer review response
Description: Following the addition of chloroacetyl-NHS to the N-terminal amino group, Cys(mmt) was selectively deprotected using 1% TFA, 5% triisopropylsilane in DCM (30 min, RT). Peptides were then cyclised on resin using 2% diisopropylethylamine in DMF overnight. Following cyclisation, Lys(ivDde) was deprotected using 2% hydrazine in DMF. The resin was then washed (3 x DCM, 3 x DMF) before on-resin coupling of chloroalkane carboxylic acid was performed on the lysine side chain using Hexafluorophosphate Azabenzotriazole Tetramethyl Uronium / diisopropylethylamine in DMF for 2 h. Global deprotection and purification were then carried out as described above. Chloroalkane carboxylate was synthesised as previously described.
CAPA assays were performed following the protocol published in ref. [51]. In brief, 40,000 HaLo- GFP-mito HeLa cells were seeded in a 96-well plate. Twenty-four hours later, cells were treated with different concentrations of chloroalkane-tagged peptides (100 µM to 200 nM for PADI4_3 and PADI4_3i and 50 µM to 100 nM for PADI4_11 and PADI4_11i) for 4 h in Opti-MEM. Media containing peptides was then removed, and cells were incubated with Opti-MEM (Gibco) for 15 min. After that time, the wash was removed, and cells were chased with HaLo-Tag TMR ligand (5 µM, Promega) in Opti-MEM for 15 min. The ligand was then removed, and cells were incubated with Opti-MEM for 30 min. Cells were then trypsinised, resuspended in phosphate-buffered saline (PBS) with 0.5% FBS and analysed using a benchtop flow cytometer (MACSQuant® VYB Flow cytometer Milteny Biotec). For each well, 10000 GFP positive single cells were analysed (gating workflow shown in Supplementary Fig. 18), and TMR mean fluorescence was normalised against a positive control (cells treated with HaLo-Tag TMR ligand but no peptide) and a negative control (non-treated cells). Analysis was performed using FlowJo (LCC) software and Prism GraphPad (Dotmatics). Data were presented as the average ± standard error of three independent replicates.

[4] = CAPA, chloroalkane-tagged peptide, 4 °C, flow cytometry, mean ± SEM of two (PADI4_3) or three (PADI4_11) independent experiments
[5] = CAPA, chloroalkane-tagged peptide, flow cytometry

T1 sequence (Q9UM07 whole entry, the tested form may be a part): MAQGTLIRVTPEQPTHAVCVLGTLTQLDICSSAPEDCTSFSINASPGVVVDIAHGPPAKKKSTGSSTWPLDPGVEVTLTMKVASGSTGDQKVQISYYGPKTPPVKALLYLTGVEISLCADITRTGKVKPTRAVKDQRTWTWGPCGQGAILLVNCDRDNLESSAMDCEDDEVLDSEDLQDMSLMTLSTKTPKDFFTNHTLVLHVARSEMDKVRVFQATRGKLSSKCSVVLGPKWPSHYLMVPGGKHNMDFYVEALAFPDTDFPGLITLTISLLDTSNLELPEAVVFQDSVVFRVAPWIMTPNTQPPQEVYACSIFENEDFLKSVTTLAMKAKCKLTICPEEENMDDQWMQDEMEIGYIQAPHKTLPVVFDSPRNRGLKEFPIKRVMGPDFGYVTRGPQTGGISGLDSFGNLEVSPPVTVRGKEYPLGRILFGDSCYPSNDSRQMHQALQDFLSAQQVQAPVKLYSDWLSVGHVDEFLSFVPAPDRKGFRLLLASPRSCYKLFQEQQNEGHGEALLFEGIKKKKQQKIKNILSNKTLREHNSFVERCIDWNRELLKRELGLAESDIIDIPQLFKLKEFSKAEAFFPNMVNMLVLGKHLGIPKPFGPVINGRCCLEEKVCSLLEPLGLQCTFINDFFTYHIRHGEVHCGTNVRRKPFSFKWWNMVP

Structure (SMILES): NC(=O)[C@H](CCCN=C(N)CCl)NC(=O)c1ccccc1 [Cl-amidine, reference compound]
mean H3Cit intensity with increasing doses of inhibitor (hPADI4-stable mES cells): dose-response read-outs

change in K50(Ca2+) (in words) (hPADI4 [1]): little change | K50(Ca2+) of PADI4 in presence of peptide (hPADI4 [1]; Fig. 4A, COLDER, CaCl2 10–0.003 mM, mean ± SEM of three independent replicates): 0.359 ± 0.026 mM | PADI4 inhibition (in words) (hPADI4 [2]): No PADI4 inhibition was observed
Structure (SMILES): CC[C@H](C)[C@@H]1NC(=O)[C@H](CCCNC(=N)N)NC(=O)[C@H](Cc2ccc(O)cc2)NC(=O)[C@H](Cc2ccccc2)NC(=O)[C@@H](Cc2ccc(O)cc2)NC(=O)CSC[C@@H](C(=O)NCC(N)=O)NC(=O)[C@H](CCC(N)=O)NC(=O)[C@H](Cc2ccc(O)cc2)NC(=O)[C@H](CC(N)=O)NC(=O)[C@@H]2CCCN2C(=O)[C@H](Cc2ccc(O)cc2)NC(=O)[C@H](Cc2c[nH]c3ccccc23)NC(=O)[C@H](Cc2ccccc2)NC(=O)CNC1=O [PADI4_1] ({CH2CO}-[dY]FYRIGFWYPNYQCG-NH2; thioether N-14)

Structure (SMILES): N=C(N)NCCC[C@@H]1NC(=O)[C@H](Cc2ccc(O)cc2)NC(=O)[C@H](Cc2c[nH]cn2)NC(=O)[C@H](Cc2c[nH]cn2)NC(=O)[C@H](CC(=O)O)NC(=O)[C@H](CCCNC(=N)N)NC(=O)[C@@H](Cc2ccc(O)cc2)NC(=O)CSC[C@@H](C(=O)NCC(N)=O)NC(=O)[C@H](Cc2ccc(O)cc2)NC(=O)[C@H](CCCCN)NC(=O)[C@@H]2CCCN2C(=O)[C@H](Cc2c[nH]cn2)NC1=O [PADI4_3] ({CH2CO}-[dY]RDHHYRHPKYCG-NH2; thioether N-12)
cytotoxicity ([3]; 1 µM peptide, imaged for 24h): No cytotoxicity was observed | CP50 at 4 °C (HaLo-GFP-mito HeLa cells; CAPA at 4C, run 220915, in µM (unit assumed)): 11.21 | CP50 at 4 °C (HaLo-GFP-mito HeLa cells; CAPA at 4C, run 240501, in µM (unit assumed)): 8.235 | CP50 at 4 °C (HaLo-GFP-mito HeLa cells; [4]): 9.7 ± 2.1 µM | CP50 (HaLo-GFP-mito HeLa cells; [5]): 1.4 ± 0.1 µM | CP50 at 4 °C relative to 37 °C (HaLo-GFP-mito HeLa cells; CAPA): 7 times

Structure (SMILES): CC(C)C[C@H](NC(=O)[C@H](CCC(N)=O)NC(=O)[C@H](CC(C)C)NC(=O)[C@@H](NC(=O)[C@H](CCC(N)=O)NC(=O)[C@H](CCCNC(=N)N)NC(=O)[C@H](Cc1ccc(O)cc1)NC(=O)[C@H](CCCNC(=N)N)NC(=O)[C@@H]1CSCC(=O)N[C@@H](Cc2ccc(O)cc2)C(=O)N[C@@H](CCC(=O)O)C(=O)N[C@@H](CO)C(=O)N1)C(C)C)C(N)=O [PADI4_11] ({CH2CO}-YESCRYRQVLQL-NH2; thioether N-4)
cytotoxicity, live cell imaging of cell death ([3]; 25µM peptide, 48 h): not toxic to the cells | CP50 at 4 °C (HaLo-GFP-mito HeLa cells; [4]): 10.8 ± 4.7 µM | CP50 (HaLo-GFP-mito HeLa cells; [5]): 3.1 ± 1.2 µM | CP50 at 4 °C relative to 37 °C (HaLo-GFP-mito HeLa cells; CAPA): 4 times

Reference: PMC11555231 (Nature Communications, 2024)
